The results in this text go back to article PMC7501296, “Rapid and direct control of target protein levels with VHL-recruiting dTAG molecules” (Nature Communications, 2020).

The assay deals with FKBP12^F36V-EWS/FLI. Description: Immunoblot of EWS502 FKBP12F36V-EWS/FLI; EWS/FLI-/- cells. The class given is cell-based. On the procedure: To generate 293T^WT FKBP12^F36V-KRAS^G12V and 293T^VHL−/− FKBP12^F36V-KRAS^G12V cells, concentrated lentiviral supernatants[6] were applied to 293T^WT and 293T^VHL−/− cells[33] in the presence of 4 µg mL^−1 polybrene and transduced cell lines were selected with 2 µg mL^−1 puromycin. To generate EWS502 FKBP12^F36V-GFP cells, EWS502 cells were transduced with pLEX_305-dTAG-GFP lentiviral supernatant and selected with 1 µg mL^−1 puromycin. To generate EWS502 FKBP12^F36V-EWS/FLI; EWS/FLI^−/− cells, EWS502 cells were co-transduced with pLEX_305-dTAG-EWS/FLI and lentiCRISPR v2-Blast-sgFLI_Ex9 lentiviral supernatants. Cells were then selected with both 1 µg mL^−1 puromycin (pLEX_305-dTAG-EWS/FLI) and 5 µg mL^−1 blasticidin (lentiCRISPR v2-Blast-sgFLI_Ex9). Knockout of endogenous EWS/FLI and the expression of exogenous FKBP12^F36V-EWS/FLI were confirmed by immunoblot and pooled transduced cell populations were employed for this study. PATU-8902 LACZ-FKBP12^F36V and FKBP12^F36V-KRAS^G12V; KRAS^−/− clones were also employed in this study.
PATU-8902 LACZ-FKBP12^F36V and FKBP12^F36V-KRAS^G12V; KRAS^−/− cells and 293T cells were lysed with RIPA buffer supplemented with cOmplete protease inhibitors (Roche), PhosSTOP phosphatase inhibitors (Roche), and 0.1% benzonase (Novagen). Proteins were separated using NuPAGE Bolt^TM Bis–Tris gels (Thermo Fisher Scientific) and transferred to nitrocellulose membranes, which were blocked with Odyssey Blocking Buffer (LI-COR) and incubated with primary antibodies overnight. Membranes were washed three times with TBS-T, incubated with the appropriate fluorescently labeled infrared secondary antibodies, washed again three times with TBS-T, and assessed using an Odyssey CLx Imager (LI-COR)[6],[15]. EWS502 cells were lysed with Cell Lysis Buffer (Cell Signaling Technology) supplemented with cOmplete protease inhibitors (Roche). Proteins were separated using SDS-PAGE gels and transferred to PVDF membranes, which were blocked with 5% milk in TBS-T and incubated with primary antibodies overnight. Membranes were washed five times with TBS-T, incubated with the appropriate horseradish peroxidase-conjugated secondary antibodies, washed again five times with TBS-T, and imaged. […]
In general terms: In western blotting, separated proteins are transferred to a membrane and probed.

`CC[C@H](C(=O)N1CCCC[C@H]1C(=O)O[C@H](CCc1ccc(OC)c(OC)c1)c1ccccc1OCC(=O)NCCCCCCC(=O)N[C@H](C(=O)N1C[C@H](O)C[C@H]1C(=O)N[C@@H](C)c1ccc(-c2scnc2C)cc1)C(C)(C)C)c1cc(OC)c(OC)c(OC)c1` [dTAG^V-1]: the “FKBP12F36V-EWS/FLI degradation, immunoblot” value (EWS502 FKBP12F36V-EWS/FLI, EWS/FLI-/- cells) is recorded as “only susceptible to degradation upon treatment with dTAG^V-1”. Where the note is “EWS502 cells”, the “Time of treatment at which FKBP12F36V-EWS/FLI degradation was evident” value is no more than 1 h.
